Source: US11739098B2 (BRISTOL-MYERS SQUIBB COMPANY, priority 2017, dated 2023)

Experiments:
Format in all cases: cell-based
human TLR7 = molecular target: T1, human TLR7 (Homo sapiens, UniProt Q9NYK1); assay: TLR7 inhibition reporter assay (HEK-Blue cells, SEAP reporter, gardiquimod stimulation); conditions: HEK-Blue cells overexpressing human TLR7, SEAP reporter, gardiquimod 7.5 μM
T1 construct: host or cells: HEK-Blue cells (HEK293-derived reporter line)
T1 sequence (Q9NYK1 27-1049): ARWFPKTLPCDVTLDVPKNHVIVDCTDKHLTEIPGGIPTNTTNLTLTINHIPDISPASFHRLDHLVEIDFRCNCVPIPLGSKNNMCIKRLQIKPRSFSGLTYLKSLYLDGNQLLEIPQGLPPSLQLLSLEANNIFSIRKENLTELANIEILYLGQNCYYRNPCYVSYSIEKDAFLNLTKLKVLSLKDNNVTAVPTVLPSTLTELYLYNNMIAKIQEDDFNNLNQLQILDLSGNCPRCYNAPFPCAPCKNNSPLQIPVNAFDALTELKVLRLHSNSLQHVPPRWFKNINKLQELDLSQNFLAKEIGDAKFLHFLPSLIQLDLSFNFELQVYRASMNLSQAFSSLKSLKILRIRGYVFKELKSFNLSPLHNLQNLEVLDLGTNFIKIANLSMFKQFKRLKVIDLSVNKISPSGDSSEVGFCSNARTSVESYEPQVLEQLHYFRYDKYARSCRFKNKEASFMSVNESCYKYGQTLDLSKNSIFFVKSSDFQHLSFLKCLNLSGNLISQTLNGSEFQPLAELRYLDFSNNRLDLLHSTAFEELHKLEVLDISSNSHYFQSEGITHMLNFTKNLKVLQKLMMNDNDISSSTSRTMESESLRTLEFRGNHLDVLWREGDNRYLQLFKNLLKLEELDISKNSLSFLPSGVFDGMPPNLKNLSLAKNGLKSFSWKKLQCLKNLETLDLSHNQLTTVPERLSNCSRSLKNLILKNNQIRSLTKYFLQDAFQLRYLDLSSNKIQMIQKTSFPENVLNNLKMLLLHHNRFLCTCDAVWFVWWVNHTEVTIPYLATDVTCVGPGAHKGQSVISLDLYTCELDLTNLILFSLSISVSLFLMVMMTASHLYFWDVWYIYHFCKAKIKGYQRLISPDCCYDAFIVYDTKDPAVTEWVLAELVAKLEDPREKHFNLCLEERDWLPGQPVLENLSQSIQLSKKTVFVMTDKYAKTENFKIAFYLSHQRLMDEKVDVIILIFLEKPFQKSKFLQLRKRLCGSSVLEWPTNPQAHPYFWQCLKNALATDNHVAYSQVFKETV
In short: (§1)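 HEK-Blue cells overexpressing the receptor, with NF-κB/AP-1-driven SEAP, were pre-treated 30 min at room temperature with compound (0.05 nM–50 μM), then stimulated with gardiquimod 7.5 μM (TLR7), R848 15.9 μM (TLR8) or ODN2006 5 nM (TLR9). SEAP was read after 22 h at 37 °C as percent inhibition.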

human TLR8 = molecular target: T2, human TLR8 (Homo sapiens, UniProt Q9NR97); assay: TLR8 inhibition reporter assay (HEK-Blue cells, SEAP reporter, R848 stimulation); conditions: HEK-Blue cells overexpressing human TLR8, SEAP reporter, R848 15.9 μM
T2 construct: host or cells: HEK-Blue cells (HEK293-derived reporter line)
T2 sequence (Q9NR97 27-1041): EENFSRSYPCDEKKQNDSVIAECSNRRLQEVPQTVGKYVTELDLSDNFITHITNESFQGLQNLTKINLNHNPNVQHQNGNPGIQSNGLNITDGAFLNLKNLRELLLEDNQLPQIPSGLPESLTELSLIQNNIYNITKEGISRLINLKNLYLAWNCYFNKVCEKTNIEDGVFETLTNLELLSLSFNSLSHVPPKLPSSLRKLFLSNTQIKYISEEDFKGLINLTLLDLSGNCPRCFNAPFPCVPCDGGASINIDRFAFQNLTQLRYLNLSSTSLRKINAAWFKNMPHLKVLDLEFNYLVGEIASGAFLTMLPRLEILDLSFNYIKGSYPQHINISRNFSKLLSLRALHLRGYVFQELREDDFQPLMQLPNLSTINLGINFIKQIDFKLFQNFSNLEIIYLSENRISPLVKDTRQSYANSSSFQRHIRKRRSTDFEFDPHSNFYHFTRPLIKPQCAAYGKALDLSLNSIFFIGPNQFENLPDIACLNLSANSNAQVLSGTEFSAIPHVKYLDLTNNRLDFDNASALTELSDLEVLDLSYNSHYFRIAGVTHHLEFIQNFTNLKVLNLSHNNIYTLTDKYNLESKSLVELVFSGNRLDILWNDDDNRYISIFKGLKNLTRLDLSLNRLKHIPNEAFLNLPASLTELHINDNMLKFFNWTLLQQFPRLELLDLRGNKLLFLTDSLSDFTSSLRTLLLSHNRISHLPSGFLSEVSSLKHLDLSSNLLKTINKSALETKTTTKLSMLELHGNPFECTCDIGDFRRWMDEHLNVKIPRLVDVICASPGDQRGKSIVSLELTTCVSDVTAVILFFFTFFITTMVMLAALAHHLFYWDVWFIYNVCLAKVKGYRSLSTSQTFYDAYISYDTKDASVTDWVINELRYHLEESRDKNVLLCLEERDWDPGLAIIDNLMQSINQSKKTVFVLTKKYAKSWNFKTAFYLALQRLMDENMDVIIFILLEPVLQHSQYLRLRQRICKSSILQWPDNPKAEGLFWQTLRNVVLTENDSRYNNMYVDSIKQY
In short: as §1

human TLR9 = molecular target: T3, human TLR9 (Homo sapiens, UniProt Q9NR96); assay: TLR9 inhibition reporter assay (HEK-Blue cells, SEAP reporter, ODN2006 stimulation); conditions: HEK-Blue cells overexpressing human TLR9, SEAP reporter, ODN2006 5 nM
T3 construct: host or cells: HEK-Blue cells (HEK293-derived reporter line)
T3 sequence (Q9NR96 26-1032): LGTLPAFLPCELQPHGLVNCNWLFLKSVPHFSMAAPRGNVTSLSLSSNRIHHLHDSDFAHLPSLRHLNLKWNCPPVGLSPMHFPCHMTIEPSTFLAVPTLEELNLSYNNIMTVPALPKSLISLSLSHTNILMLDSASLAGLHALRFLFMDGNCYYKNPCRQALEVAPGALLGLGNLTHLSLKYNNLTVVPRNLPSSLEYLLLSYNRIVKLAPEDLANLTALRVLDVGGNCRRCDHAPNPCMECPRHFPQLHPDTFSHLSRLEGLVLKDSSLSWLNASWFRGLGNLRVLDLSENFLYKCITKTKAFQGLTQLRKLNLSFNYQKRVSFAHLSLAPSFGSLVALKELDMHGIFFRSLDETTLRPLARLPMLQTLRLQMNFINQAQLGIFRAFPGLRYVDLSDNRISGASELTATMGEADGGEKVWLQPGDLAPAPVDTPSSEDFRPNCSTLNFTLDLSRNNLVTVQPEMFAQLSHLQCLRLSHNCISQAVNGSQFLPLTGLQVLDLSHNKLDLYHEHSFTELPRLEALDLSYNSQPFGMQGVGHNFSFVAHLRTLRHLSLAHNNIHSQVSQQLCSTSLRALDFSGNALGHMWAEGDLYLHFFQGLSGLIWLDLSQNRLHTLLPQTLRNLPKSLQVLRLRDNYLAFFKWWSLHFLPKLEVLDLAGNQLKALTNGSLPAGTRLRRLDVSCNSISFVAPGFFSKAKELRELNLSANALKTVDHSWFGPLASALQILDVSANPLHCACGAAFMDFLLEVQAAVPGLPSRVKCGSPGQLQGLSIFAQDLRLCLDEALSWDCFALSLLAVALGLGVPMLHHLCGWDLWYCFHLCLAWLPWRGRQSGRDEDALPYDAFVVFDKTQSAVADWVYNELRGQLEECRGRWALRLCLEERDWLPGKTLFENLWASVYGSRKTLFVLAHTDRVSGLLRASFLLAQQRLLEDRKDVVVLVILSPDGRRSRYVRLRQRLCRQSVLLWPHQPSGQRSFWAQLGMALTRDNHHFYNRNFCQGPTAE
In short: as §1

IC50 (human TLR7) [µM]	IC50 (human TLR8) [µM]	IC50 (human TLR9) [µM]	SMILES
< 0.1	< 0.1	0.1 to 1	CNCC(=O)N1CCC(c2ccc3[nH]c(-c4cc(C)n5cncc5c4)c(C(C)C)c3c2)CC1 [Example 530, 1-(4-(3-isopropyl-2-(5-methylimidazo[1,5-a]pyridin-7-yl)-1H-indol-5-yl)piperidin-1-yl)-2-(methylamino)ethan-1-one]
0.1 to 1	< 0.1	1 to 50	CCc1c(-c2ccnc3[nH]ncc23)[nH]c2ccc(C3CCN(Cc4nccs4)CC3)cc12 [Example 929, 2-((4-(3-ethyl-2-(1H-pyrazolo[3,4-b]pyridin-4-yl)-1H-indol-5-yl)piperidin-1-yl)methyl)thiazole]
0.1 to 1	1 to 50	1 to 50	CC(C)c1c(-c2ccnc3[nH]c(=O)[nH]c23)[nH]c2ccc(C3CCNCC3)cc12 [Example 57, 7-(3-isopropyl-5-(piperidin-4-yl)-1H-indol-2-yl)-1,3-dihydro-2H-imidazo[4,5-b]pyridin-2-one]
< 0.1	< 0.1	1 to 50	Cc1cc(-c2[nH]c3ccc(C4CCN(CC(N)=O)CC4)cc3c2C(C)C)cc2cnnn12 [Example 321, 2-(4-(3-isopropyl-2-(7-methyl-[1,2,3]triazolo[1,5-a]pyridin-5-yl)-1H-indol-5-yl)piperidin-1-yl)acetamide]
< 0.1	0.1 to 1	1 to 50	COc1cc(-c2[nH]c3ccc(C4CCNCC4)cc3c2C(C)C)c2ccccc2n1 [Example 105, 4-(3-isopropyl-5-(piperidin-4-yl)-1H-indol-2-yl)-2-methoxyquinoline]
1 to 50	< 0.1	< 0.1	Cc1c(-c2ccnc3c2ccn3C)[nH]c2ccc(C3CCN(C4CCN(CC(C)C)CC4)CC3)cc12 [Example 843, 4-(5-(1′-isobutyl-[1,4′-bipiperidin]-4-yl)-3-methyl-1H-indol-2-yl)-1-methyl-1H-pyrrolo[2,3-b]pyridine]
< 0.1	< 0.1	< 0.1	Cc1cc2nccn2cc1-c1[nH]c2ccc(C3CCN(C4CCN(C(C)C)CC4)CC3)cc2c1C(C)C [Example 841, 6-(3-isopropyl-5-(1′-isopropyl-[1,4′-bipiperidin]-4-yl)-1H-indol-2-yl)-7-methylimidazo[1,2-a]pyridine]
< 0.1	< 0.1	1 to 50	CCc1c(-c2ccnc3[nH]ncc23)[nH]c2ccc(C3CCN(Cc4cscn4)CC3)cc12 [Example 927, 4-((4-(3-ethyl-2-(1H-pyrazolo[3,4-b]pyridin-4-yl)-1H-indol-5-yl)piperidin-1-yl)methyl)thiazole]
< 0.1	< 0.1	1 to 50	Cc1cnc2[nH]ncc2c1-c1[nH]c2ccc(C3CCNCC3)cc2c1C(C)C [Example 46, 4-(3-isopropyl-5-(piperidin-4-yl)-1H-indol-2-yl)-5-methyl-1H-pyrazolo[3,4-b]pyridine]
< 0.1	< 0.1	1 to 50	Cc1c(-c2[nH]c3ccc(C4CCN(CC(=O)N(C)C)CC4)cc3c2C(C)C)cn2ccnc2c1Cl [Example 415, 2-(4-(2-(8-chloro-7-methylimidazo[1,2-a]pyridin-6-yl)-3-isopropyl-1H-indol-5-yl)piperidin-1-yl)-N,N-dimethylacetamide]
< 0.1	< 0.1	1 to 50	CC(C)c1c(-c2cn(C)c3ncccc23)[nH]c2ccc(C3CCN(C4CCS(=O)(=O)CC4)CC3)cc12 [Example 784, 4-(4-(3-isopropyl-2-(1-methyl-1H-pyrrolo[2,3-b]pyridin-3-yl)-1H-indol-5-yl)piperidin-1-yl)tetrahydro-2H-thiopyran 1,1-dioxide]
< 0.1	< 0.1	0.1 to 1	Cc1cc2nccn2cc1-c1[nH]c2ccc(C3CCNCC3)cc2c1C(C)C [Example 110, 6-(3-isopropyl-5-(piperidin-4-yl)-1H-indol-2-yl)-7-methylimidazo[1,2-a]pyridine]
< 0.1	< 0.1	0.1 to 1	CC(C)c1c(-c2cnc3ncccn23)[nH]c2ccc(C3CCNCC3)cc12 [Example 64, 3-(3-isopropyl-5-(piperidin-4-yl)-1H-indol-2-yl)imidazo[1,2-a]pyrimidine]
> 3.13	> 3.13	1 to 50	Cc1cc2cc(-c3[nH]c4ccc(C5CCN(CC(=O)N(C)C)CC5)cc4c3C(C)C)cc(CC(C)C)n2n1 [Example 393, 2-(4-(2-(7-isobutyl-2-methylpyrazolo[1,5-a]pyridin-5-yl)-3-isopropyl-1H-indol-5-yl)piperidin-1-yl)-N,N-dimethylacetamide]
1 to 50	< 0.1	< 0.1	Cc1c(-c2ccnc3c2ccn3C)[nH]c2ccc(C3CCN(C4CCN(C(C)C)CC4)CC3)cc12 [Example 844, 4-(5-(1′-isopropyl-[1,4′-bipiperidin]-4-yl)-3-methyl-1H-indol-2-yl)-1-methyl-1H-pyrrolo[2,3-b]pyridine]
